Values belong to the compound of their own block, whether it stands above or below them.
What was measured:
[1] = Volume of distribution in C57BL/6J mouse at 30 mg/kg, iv by LC-MS/MS analysis; assay type: ADME, organism-based; details: in vivo
[2] = Unbound fraction in po dosed C57BL/6J mouse plasma by LC-MS/MS analysis; assay type: ADME, organism-based
Homo sapiens = species: Homo sapiens; assay: Inhibition of PKA (unknown origin) at 0.078 uM relative to control
[3] = target: Insulin receptor (Homo sapiens) (UniProt P06213); assay: Inhibition of INSR (unknown origin) at 0.078 uM relative to control
[4] = target: Tyrosine-protein kinase Lck (Homo sapiens) (UniProt P06239); assay: Inhibition of LCK (unknown origin) at 0.078 uM relative to control
[5] = target: RAC-beta serine/threonine-protein kinase (Homo sapiens) (UniProt P31751); assay: Inhibition of AKT2 (unknown origin) at 0.49 uM relative to control
[6] = target: RAC-gamma serine/threonine-protein kinase (Homo sapiens) (UniProt Q9Y243); assay: Inhibition of AKT3 (unknown origin) at 0.49 uM relative to control
[7] = target: Ephrin type-A receptor 5 (Homo sapiens) (UniProt P54756); assay: Inhibition of EPHA5 (unknown origin) at 0.49 uM relative to control
[8] = target: Rho-associated protein kinase 1 (Homo sapiens) (UniProt Q13464); assay: Inhibition of ROCK1 (unknown origin) at 0.49 uM relative to control
[9] = target: Rho-associated protein kinase 2 (Homo sapiens) (UniProt O75116); assay: Inhibition of ROCK2 (unknown origin) at 0.49 uM relative to control
[10] = target: AMP-activated protein kinase, AMPK (Homo sapiens) (UniProt P54646+O43741+P54619+Q9UGJ0+Q9Y478+Q13131+Q9UGI9); assay: Inhibition of AMPK (unknown origin) at 0.49 uM relative to control
[11] = target: AMPK alpha2/beta1/gamma1 (Homo sapiens) (UniProt P54646+P54619+Q9Y478); assay: Inhibition of AMPK-alpha2/beta1/gamma1 (unknown origin) at 0.49 uM relative to control; assay type: protein-complex assay
[12] = target: Cyclin-dependent kinase 2 (Homo sapiens) (UniProt P24941); assay: Inhibition of CDK2 (unknown origin) at 0.49 uM relative to control
[13] = target: Mitogen-activated protein kinase 1 (Homo sapiens) (UniProt P28482); assay: Inhibition of Erk2 (unknown origin) at 0.49 uM relative to control
[14] = target: Fibroblast growth factor receptor 2 (Homo sapiens) (UniProt P21802); assay: Inhibition of FGFR2 (unknown origin) at 0.49 uM relative to control
[15] = system: Fibroblast growth factor receptor 4 (Homo sapiens), P22455 [V550L]; assay: Inhibition of FGFR4 V550L mutant (unknown origin) at 0.49 uM relative to control
[16] = target: STE20-like serine/threonine-protein kinase (Homo sapiens) (UniProt Q9H2G2); assay: Inhibition of SLK (unknown origin) at 0.49 uM relative to control
[17] = target: Serine/threonine-protein kinase 25 (Homo sapiens) (UniProt O00506); assay: Inhibition of YSK (unknown origin) at 0.49 uM relative to control
[18] = system: Proto-oncogene tyrosine-protein kinase receptor Ret (Homo sapiens), P07949 [V804L]; assay: Inhibition of Ret V804L mutant (unknown origin) at 0.49 uM relative to control
[19] = target: T1, Interleukin-1 receptor-associated kinase 4 (Homo sapiens) (UniProt Q9NWZ3); assay: Inhibition of IRAK4 (unknown origin) at 0.49 uM relative to control
T1 sequence (whole entry): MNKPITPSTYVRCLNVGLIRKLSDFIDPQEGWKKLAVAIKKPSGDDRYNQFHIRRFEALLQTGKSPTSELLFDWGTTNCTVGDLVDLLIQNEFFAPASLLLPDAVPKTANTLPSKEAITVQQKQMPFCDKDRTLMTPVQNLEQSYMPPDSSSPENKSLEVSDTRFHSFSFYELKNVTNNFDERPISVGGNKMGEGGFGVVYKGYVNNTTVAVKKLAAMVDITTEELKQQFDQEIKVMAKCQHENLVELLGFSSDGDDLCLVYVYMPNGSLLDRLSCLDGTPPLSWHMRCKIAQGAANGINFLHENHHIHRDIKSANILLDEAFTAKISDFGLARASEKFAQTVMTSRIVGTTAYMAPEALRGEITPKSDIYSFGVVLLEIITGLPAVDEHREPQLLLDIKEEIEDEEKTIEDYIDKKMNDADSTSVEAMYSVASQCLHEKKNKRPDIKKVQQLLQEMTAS

[20] = target: Protein kinase C alpha type (Homo sapiens) (UniProt P17252); assay: Inhibition of PKC-alpha (unknown origin) at 0.49 uM relative to control
[21] = target: Dual specificity tyrosine-phosphorylation-regulated kinase 1B (Homo sapiens) (UniProt Q9Y463); assay: Inhibition of DYRK1B (unknown origin) at 0.45 uM relative to control
[22] = target: Mitogen-activated protein kinase 12 (Homo sapiens) (UniProt P53778); assay: Inhibition of p38-gamma (unknown origin) at 0.45 uM relative to control
[23] = system: Receptor-type tyrosine-protein kinase FLT3 (Homo sapiens), P36888 [D835Y]; assay: Inhibition of Flt3 D835Y mutant (unknown origin) at 0.45 uM relative to control
[24] = target: Tyrosine-protein kinase Fyn (Homo sapiens) (UniProt P06241); assay: Inhibition of FYN (unknown origin) at 0.45 uM relative to control
[25] = target: MAP/microtubule affinity-regulating kinase 4 (Homo sapiens) (UniProt Q96L34); assay: Inhibition of MARK4 (unknown origin) at 0.45 uM relative to control
[26] = system: Tyrosine-protein kinase ABL1 (Homo sapiens), P00519 [H396P]; assay: Inhibition of Abl H396P mutant (unknown origin) at 0.45 uM relative to control
[27] = target: Tyrosine-protein kinase Yes (Homo sapiens) (UniProt P07947); assay: Inhibition of Yes (unknown origin) at 0.45 uM relative to control
MAP4K2 (Homo sapiens) = assay: Inhibition of GCK (unknown origin) at 0.45 uM relative to control

- Vd [1]: 0.91 L/kg
- fraction unbound [2]: 0.17
- inhibition (Homo sapiens): -2.3%
- inhibition [3]: 1.7%
- inhibition [4]: 4.7%
SMILES: COC(=O)Nc1noc2cc(-c3c(-c4ccccn4)n[nH]c3C)ccc12

- inhibition [5]: 3%
- inhibition [6]: 7.3%
- inhibition [7]: 3%
- inhibition [8]: 1%
- inhibition [9]: 8.7%
- inhibition [10]: 2%
- inhibition [11]: 3.3%
- inhibition [12]: 1.3%
- inhibition [13]: -0.3%
- inhibition [14]: -0.7%
- inhibition [15]: 4%
- inhibition [16]: 4.7%
- inhibition [17]: 4.3%
- inhibition [18]: -0.7%
- inhibition [19]: 2%
- inhibition [20]: 2%
SMILES: Cc1[nH]nc(C2CC2)c1-c1ccc2c(NC(=O)C3CC3)noc2c1

- inhibition [21]: 19.7%
- inhibition [22]: 0%
- inhibition [23]: 89%
- inhibition [24]: 46%
- inhibition [25]: 37%
- inhibition [26]: 84%
- inhibition [27]: 49%
- inhibition (MAP4K2 (Homo sapiens)): 66%
SMILES: Cc1n[nH]c(C)c1-c1ccc2c(NC(=O)c3ccc(N4CCN(C)CC4)cc3)n[nH]c2c1

Reference: ChEMBL document CHEMBL4052759, “Discovery of DS79182026: A potent orally active hepcidin production inhibitor” (Bioorg Med Chem Lett, 2017)
